Measured values taken from patent publication US8076487B2, “Pyridone derivative and herbicide” (Kumiai Chemical Industry Co., Ltd., priority 2006, dated 2011).

Assays:
Assay type in all cases: in vivo
[1] = system: slender amaranth (Amaranthus viridis L.); test: Test Example 2: herbicidal effect by soil application to upland field; settings: soil surface spray, upland field soil, 1,000 g active ingredient per hectare, 21st day after application
Outline: (§1)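 Dose was 1,000 g active ingredient per hectare, applied as a wettable powder diluted in water and sprayed evenly over the soil of sown, covered pots at a 1,000 L/ha equivalent. Effect was judged by a standard scale 21 d later under greenhouse conditions.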

[2] = system: barnyardgrass (Echinochloa crus-galli (L.) P. Beauv. var. crus-galli); test: as above; settings: soil surface spray, upland field soil, 1,000 g active ingredient per hectare, 21st day after application
Outline: as §1

[3] = system: velvetleaf (Abutilon theophrasti medicus); test: as above; settings: soil surface spray, upland field soil, 1,000 g active ingredient per hectare, 21st day after application
Outline: as §1

[4] = system: green foxtail (Setaria viridis (L.) P. Beauv.); test: as above; settings: soil surface spray, upland field soil, 1,000 g active ingredient per hectare, 21st day after application
Outline: as §1

[5] = system: slender amaranth (Amaranthus viridis L.); test: Test Example 3: herbicidal effect by application to upland field (foliage treatment); settings: foliage treatment, 1,000 g active ingredient per 1 hectare, 14th day after application, greenhouse
Outline: (§2)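 Foliar spray on two-week-old greenhouse weeds in field soil: wettable powder formulation diluted in water, applied at 1,000 L/ha to give 1,000 g a.i./ha. Damage rated by a fixed scoring standard on day 14 after application.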

[6] = system: barnyardgrass (Echinochloa crus-galli (L.) P. Beauv. var. crus-galli); test: as above; settings: foliage treatment, 1,000 g active ingredient per 1 hectare, 14th day after application, greenhouse
Outline: as §2

[7] = system: velvetleaf (Abutilon theophrasti medicus); test: as above; settings: foliage treatment, 1,000 g active ingredient per 1 hectare, 14th day after application, greenhouse
Outline: as §2

[8] = system: green foxtail (Setaria viridis (L.) P. Beauv.); test: as above; settings: foliage treatment, 1,000 g active ingredient per 1 hectare, 14th day after application, greenhouse
Outline: as §2

[9] = system: early watergrass (Echinochloa oryzicola Vasing); test: Test Example 1: herbicidal effect by soil application to paddy field; settings: paddy field soil application; active ingredient 1,000 g per 1 hectare; wettable powder added dropwise to water surface the day after sowing; examined on the 21st day after application
Outline: (§3)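 Under greenhouse conditions, seeds sown on puddled paddy soil in 100 cm2 pots under 3 cm of standing water received the test compound; injury was assessed with a standard scoring scheme three weeks (day 21) after treatment.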

[10] = system: heartshape false pickerelweed (Monochoria vaginalis (Burm.f.) C.Presl); test: as above; settings: paddy field soil application; active ingredient 1,000 g per 1 hectare; wettable powder added dropwise to water surface the day after sowing; examined on the 21st day after application
Outline: as §3

[11] = system: Japanese bulrush (Scirpus juncoides Roxb.); test: as above; settings: paddy field soil application; active ingredient 1,000 g per 1 hectare; wettable powder added dropwise to water surface the day after sowing; examined on the 21st day after application
Outline: as §3

C=CCn1c(C(F)(F)F)ccc(C(=O)c2cnn(C)c2O)c1=O [IV-11]
herbicidal effect (index), Slender Amaranth [1]: 5 (90% or more of herbicidal effect and crop phytotoxicity) | herbicidal effect (index), Barnyardgrass [2]: 5 (90% or more of herbicidal effect and crop phytotoxicity) | herbicidal effect (index), Velvetleaf [3]: 5 (90% or more of herbicidal effect and crop phytotoxicity) | herbicidal effect (index), Green Foxtail [4]: 4 (70 to less than 90% of herbicidal effect and crop phytotoxicity) | herbicidal effect, Slender Amaranth [5]: 5 (90% or more of herbicidal effect and crop phytotoxicity) | herbicidal effect, Barnyardgrass [6]: 5 (90% or more of herbicidal effect and crop phytotoxicity) | herbicidal effect, Velvetleaf [7]: 5 (90% or more of herbicidal effect and crop phytotoxicity) | herbicidal effect, Green Foxtail [8]: 5 (90% or more of herbicidal effect and crop phytotoxicity) | herbicidal effect, Echinochloa oryzicola Vasing [9]: 5 (90% or more of herbicidal effect and crop phytotoxicity) | herbicidal effect, Monochoria vaginalis (Burm. f.) C. Presl [10]: 5 (90% or more of herbicidal effect and crop phytotoxicity) | herbicidal effect, Scirpus juncoides Roxb. [11]: 5 (90% or more of herbicidal effect and crop phytotoxicity)

Cn1ncc(C(=O)c2ccc(C(F)(F)F)n(C3CC3)c2=O)c1O [IV-18]
herbicidal effect (index), Slender Amaranth [1]: 5 (90% or more of herbicidal effect and crop phytotoxicity) | herbicidal effect (index), Barnyardgrass [2]: 5 (90% or more of herbicidal effect and crop phytotoxicity) | herbicidal effect (index), Velvetleaf [3]: 5 (90% or more of herbicidal effect and crop phytotoxicity) | herbicidal effect (index), Green Foxtail [4]: 5 (90% or more of herbicidal effect and crop phytotoxicity) | herbicidal effect, Slender Amaranth [5]: 5 (90% or more of herbicidal effect and crop phytotoxicity) | herbicidal effect, Barnyardgrass [6]: 5 (90% or more of herbicidal effect and crop phytotoxicity) | herbicidal effect, Velvetleaf [7]: 5 (90% or more of herbicidal effect and crop phytotoxicity) | herbicidal effect, Green Foxtail [8]: 5 (90% or more of herbicidal effect and crop phytotoxicity) | herbicidal effect, Echinochloa oryzicola Vasing [9]: 5 (90% or more of herbicidal effect and crop phytotoxicity) | herbicidal effect, Monochoria vaginalis (Burm. f.) C. Presl [10]: 5 (90% or more of herbicidal effect and crop phytotoxicity) | herbicidal effect, Scirpus juncoides Roxb. [11]: 5 (90% or more of herbicidal effect and crop phytotoxicity)

CCCS(=O)(=O)Oc1c(C(=O)c2ccc(C(F)(F)F)n(C3CC3)c2=O)cnn1C [IV-19]
herbicidal effect (index), Slender Amaranth [1]: 5 (90% or more of herbicidal effect and crop phytotoxicity) | herbicidal effect (index), Barnyardgrass [2]: 5 (90% or more of herbicidal effect and crop phytotoxicity) | herbicidal effect (index), Velvetleaf [3]: 5 (90% or more of herbicidal effect and crop phytotoxicity) | herbicidal effect (index), Green Foxtail [4]: 5 (90% or more of herbicidal effect and crop phytotoxicity) | herbicidal effect, Slender Amaranth [5]: 5 (90% or more of herbicidal effect and crop phytotoxicity) | herbicidal effect, Barnyardgrass [6]: 5 (90% or more of herbicidal effect and crop phytotoxicity) | herbicidal effect, Velvetleaf [7]: 5 (90% or more of herbicidal effect and crop phytotoxicity) | herbicidal effect, Green Foxtail [8]: 5 (90% or more of herbicidal effect and crop phytotoxicity) | herbicidal effect, Echinochloa oryzicola Vasing [9]: 5 (90% or more of herbicidal effect and crop phytotoxicity) | herbicidal effect, Monochoria vaginalis (Burm. f.) C. Presl [10]: 5 (90% or more of herbicidal effect and crop phytotoxicity) | herbicidal effect, Scirpus juncoides Roxb. [11]: 5 (90% or more of herbicidal effect and crop phytotoxicity)

Cn1ncc(C(=O)c2ccc(C(F)(F)F)n(C3CCCC3)c2=O)c1O [IV-21]
herbicidal effect (index), Slender Amaranth [1]: 5 (90% or more of herbicidal effect and crop phytotoxicity) | herbicidal effect (index), Barnyardgrass [2]: 3 (50 to less than 70% of herbicidal effect and crop phytotoxicity) | herbicidal effect (index), Velvetleaf [3]: 5 (90% or more of herbicidal effect and crop phytotoxicity) | herbicidal effect (index), Green Foxtail [4]: 5 (90% or more of herbicidal effect and crop phytotoxicity) | herbicidal effect, Slender Amaranth [5]: 5 (90% or more of herbicidal effect and crop phytotoxicity) | herbicidal effect, Barnyardgrass [6]: 5 (90% or more of herbicidal effect and crop phytotoxicity) | herbicidal effect, Velvetleaf [7]: 5 (90% or more of herbicidal effect and crop phytotoxicity) | herbicidal effect, Green Foxtail [8]: 4 (70 to less than 90% of herbicidal effect and crop phytotoxicity) | herbicidal effect, Echinochloa oryzicola Vasing [9]: 5 (90% or more of herbicidal effect and crop phytotoxicity) | herbicidal effect, Monochoria vaginalis (Burm. f.) C. Presl [10]: 5 (90% or more of herbicidal effect and crop phytotoxicity) | herbicidal effect, Scirpus juncoides Roxb. [11]: 5 (90% or more of herbicidal effect and crop phytotoxicity)

Cn1ncc(C(=O)c2ccc(C(F)(F)F)n(CCC=C(Cl)Cl)c2=O)c1O [IV-30]
herbicidal effect (index), Slender Amaranth [1]: 5 (90% or more of herbicidal effect and crop phytotoxicity) | herbicidal effect (index), Barnyardgrass [2]: 5 (90% or more of herbicidal effect and crop phytotoxicity) | herbicidal effect (index), Velvetleaf [3]: 5 (90% or more of herbicidal effect and crop phytotoxicity) | herbicidal effect (index), Green Foxtail [4]: 3 (50 to less than 70% of herbicidal effect and crop phytotoxicity) | herbicidal effect, Slender Amaranth [5]: 5 (90% or more of herbicidal effect and crop phytotoxicity) | herbicidal effect, Barnyardgrass [6]: 5 (90% or more of herbicidal effect and crop phytotoxicity) | herbicidal effect, Velvetleaf [7]: 5 (90% or more of herbicidal effect and crop phytotoxicity) | herbicidal effect, Green Foxtail [8]: 5 (90% or more of herbicidal effect and crop phytotoxicity) | herbicidal effect, Echinochloa oryzicola Vasing [9]: 5 (90% or more of herbicidal effect and crop phytotoxicity) | herbicidal effect, Monochoria vaginalis (Burm. f.) C. Presl [10]: 5 (90% or more of herbicidal effect and crop phytotoxicity) | herbicidal effect, Scirpus juncoides Roxb. [11]: 5 (90% or more of herbicidal effect and crop phytotoxicity)

COCCn1c(C(F)(F)F)ccc(C(=O)c2cnn(C)c2O)c1=O [IV-33]
herbicidal effect (index), Slender Amaranth [1]: 5 (90% or more of herbicidal effect and crop phytotoxicity) | herbicidal effect (index), Barnyardgrass [2]: 5 (90% or more of herbicidal effect and crop phytotoxicity) | herbicidal effect (index), Velvetleaf [3]: 5 (90% or more of herbicidal effect and crop phytotoxicity) | herbicidal effect (index), Green Foxtail [4]: 5 (90% or more of herbicidal effect and crop phytotoxicity) | herbicidal effect, Slender Amaranth [5]: 5 (90% or more of herbicidal effect and crop phytotoxicity) | herbicidal effect, Barnyardgrass [6]: 5 (90% or more of herbicidal effect and crop phytotoxicity) | herbicidal effect, Velvetleaf [7]: 5 (90% or more of herbicidal effect and crop phytotoxicity) | herbicidal effect, Green Foxtail [8]: 5 (90% or more of herbicidal effect and crop phytotoxicity) | herbicidal effect, Echinochloa oryzicola Vasing [9]: 5 (90% or more of herbicidal effect and crop phytotoxicity) | herbicidal effect, Monochoria vaginalis (Burm. f.) C. Presl [10]: 5 (90% or more of herbicidal effect and crop phytotoxicity) | herbicidal effect, Scirpus juncoides Roxb. [11]: 5 (90% or more of herbicidal effect and crop phytotoxicity)

CCOCCn1c(C(F)(F)F)ccc(C(=O)c2cnn(C)c2O)c1=O [IV-34]
herbicidal effect (index), Slender Amaranth [1]: 5 (90% or more of herbicidal effect and crop phytotoxicity) | herbicidal effect (index), Barnyardgrass [2]: 5 (90% or more of herbicidal effect and crop phytotoxicity) | herbicidal effect (index), Velvetleaf [3]: 5 (90% or more of herbicidal effect and crop phytotoxicity) | herbicidal effect (index), Green Foxtail [4]: 5 (90% or more of herbicidal effect and crop phytotoxicity) | herbicidal effect, Slender Amaranth [5]: 5 (90% or more of herbicidal effect and crop phytotoxicity) | herbicidal effect, Barnyardgrass [6]: 5 (90% or more of herbicidal effect and crop phytotoxicity) | herbicidal effect, Velvetleaf [7]: 5 (90% or more of herbicidal effect and crop phytotoxicity) | herbicidal effect, Green Foxtail [8]: 5 (90% or more of herbicidal effect and crop phytotoxicity) | herbicidal effect, Echinochloa oryzicola Vasing [9]: 5 (90% or more of herbicidal effect and crop phytotoxicity) | herbicidal effect, Monochoria vaginalis (Burm. f.) C. Presl [10]: 5 (90% or more of herbicidal effect and crop phytotoxicity) | herbicidal effect, Scirpus juncoides Roxb. [11]: 5 (90% or more of herbicidal effect and crop phytotoxicity)

CCOCCn1c(C(F)(F)F)ccc(C(=O)c2cnn(C)c2OC(=O)c2ccccc2)c1=O [IV-35]
herbicidal effect (index), Slender Amaranth [1]: 5 (90% or more of herbicidal effect and crop phytotoxicity) | herbicidal effect (index), Barnyardgrass [2]: 5 (90% or more of herbicidal effect and crop phytotoxicity) | herbicidal effect (index), Velvetleaf [3]: 5 (90% or more of herbicidal effect and crop phytotoxicity) | herbicidal effect (index), Green Foxtail [4]: 5 (90% or more of herbicidal effect and crop phytotoxicity) | herbicidal effect, Slender Amaranth [5]: 5 (90% or more of herbicidal effect and crop phytotoxicity) | herbicidal effect, Barnyardgrass [6]: 5 (90% or more of herbicidal effect and crop phytotoxicity) | herbicidal effect, Velvetleaf [7]: 5 (90% or more of herbicidal effect and crop phytotoxicity) | herbicidal effect, Green Foxtail [8]: 5 (90% or more of herbicidal effect and crop phytotoxicity) | herbicidal effect, Echinochloa oryzicola Vasing [9]: 5 (90% or more of herbicidal effect and crop phytotoxicity) | herbicidal effect, Monochoria vaginalis (Burm. f.) C. Presl [10]: 5 (90% or more of herbicidal effect and crop phytotoxicity) | herbicidal effect, Scirpus juncoides Roxb. [11]: 5 (90% or more of herbicidal effect and crop phytotoxicity)
